The record followed here is patent publication US20090118318A1, “Novel Diazaspiroalkanes and Their Use for Treatment of CCR8 Mediated Diseases” (priority 2005, published 2009).

The target in data set [1] is T1, human recombinant chemokine CCR8 receptor (Homo sapiens, UniProt P51685).
T1 construct: purchased Euroscreen ES-136-M; host or cells: CHO-K1 cells (transfected), membrane preparation
The experiment in a line: CCL1 SPA Binding Assay. As to conditions: inhibition of 125I CCL1 binding to CCR8 membranes from transfected CHO-K1 cells. The protocol: Membranes from CHO-K1 cells transfected with human recombinant chemokine CCR8 receptor (ES-136-M) were purchased from Euroscreen. Membrane preparations are stored at −70C in 7.5 mM Tris-Cl pH 7.5, 12.5 mM MgCl2, 0.3 mM EDTA, 1 mM EGTA, 250 mM sucrose until used.
The CCR8 membranes ([…]) were preincubated with Wheat Germ Agglutinin SPA beads (4.05 mg/ml) in assay buffer (50 mM HEPES, 1 mM CaCl2x2H2O, 5 mM MgCl2x6H2O, 75 mM NaCl, 0.1% BSA) at pH=7.4 for 2 hours on ice. A […] dose-response curve (final concentrations 50 μM, 16.7 μM, 5.6 μM, 1.9 μM, 0.62 μM, 0.21 μM, 0.069 μM, 0.023 μM) was prepared by diluting compounds by serial dilution 1:3 in DMSO. In the screening plate (Polystyrene NBS plates, Costar Corning 3604) 1 μl from the DMSO solutions of compounds was transferred into each well. 1 μl of DMSO was added to the blank control wells and 1 μl unlabeled CCL1 ([…]) was added to background control wells. 50 μl of the SPA bead-membrane mixture was added into each well. Finally, 50 μl ([…]) ^125I CCL1 (2000 Ci/mM) was added to each well. Plates were then incubated at RT with shaking (700 rpm) for 90 minutes followed by 30 minutes at RT without shaking. The plate was read in a Wallac MicroBeta counter for 2 minutes/well.

Data set [2] is described as follows: Human Microsomal Stability Assay. Type of data set: in vitro ADME. As to conditions: human microsomes (Xenotech); human microsomes 1 mg protein/mL, compound 2.5 μM, NADPH 2 mM, pH 7.4, 37° C.; read-out: Intrinsic clearance. As for the experimental part: Human Microsomal Stability Assay
Samples at four time-points (0, 5, 15 and 30 minutes) are withdrawn and the enzymatic reaction is terminated by protein precipitation with 1% acetic acid in acetonitrile. The incubations are performed on a thermostated plate (37° C.) placed on a Tecan worktable, and all liquid handling was performed robotically. After centrifugation of the samples, the supernatants are pooled in sets of four before they are analysed by liquid chromatography with tandem mass spectrometry detection (LC/MS/MS) using multiple reaction monitoring (MRM). Data are presented as intrinsic Clearance (CLint), μl/min/mg protein, calculated from the initial linear part of the compound disappearance curve.

T1 sequence (P51685 whole entry): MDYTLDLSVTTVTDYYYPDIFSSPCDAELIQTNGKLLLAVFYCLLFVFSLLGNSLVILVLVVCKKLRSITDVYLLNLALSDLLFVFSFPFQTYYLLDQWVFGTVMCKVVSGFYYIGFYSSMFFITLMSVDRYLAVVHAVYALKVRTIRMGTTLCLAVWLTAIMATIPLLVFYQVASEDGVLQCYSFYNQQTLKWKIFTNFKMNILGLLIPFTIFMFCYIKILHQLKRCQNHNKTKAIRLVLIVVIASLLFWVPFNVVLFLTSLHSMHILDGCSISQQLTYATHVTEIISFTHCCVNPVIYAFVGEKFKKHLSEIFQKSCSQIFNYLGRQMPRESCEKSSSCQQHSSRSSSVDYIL

On to `CC(C)COc1ccccc1CN1CCC2(CC1)CCN(C(=O)c1ccccc1CC(=O)O)CC2` [A, (2-{[9-(2-isobutoxybenzyl)-3,9-diazaspiro[5.5]undec-3-yl]carbonyl}phenyl)acetic Acid, reference compound], for which, in data set [1], the IC50 (as a rule, the concentration that inhibits the measured activity by half) is 1060 nM.
In the case of `CC(C)COc1ccccc1CN1CCC2(CC1)CCN(C(=O)c1ccccc1C(=O)O)CC2` [B, 2-{[9-(2-isobutoxybenzyl)-3,9-diazaspiro[5.5]undec-3-yl]carbonyl}benzoic Acid, reference compound], the IC50 in data set [1] turned out to be 1370 nM.
As to `O=C(O)Cc1ccccc1C(=O)N1CCC2(CCN(Cc3ccccc3Oc3ccccc3)CC2)CC1` [Example 1, (2-{[9-(2-phenoxybenzyl)-3,9-diazaspiro[5.5]undec-3-yl]carbonyl}phenyl)acetic Acid], the IC50 in data set [1] was found to be 643 nM. Also, the microsomal CLint at 2.5 μM in data set [2] is less than 10 µL/min/mg.
Taken in the same sequence, the figures for `O=C(O)Cc1cc(Cl)ccc1C(=O)N1CCC2(CCN(Cc3ccccc3Oc3ccccc3)CC2)CC1` [Example 2, (5-chloro-2-{[9-(2-phenoxybenzyl)-3,9-diazaspiro[5.5]undec-3-yl]carbonyl}phenyl)acetic Acid] were 196 nM and less than 10 µL/min/mg.
The corresponding values for `O=C(O)Cc1ccccc1C(=O)N1CCC2(CCN(Cc3cccc(Oc4ccccc4)c3)CC2)CC1` [Example 3, (2-{[9-(3-phenoxybenzyl)-3,9-diazaspiro[5.5]undec-3-yl]carbonyl}phenyl)acetic Acid] are 144 nM and less than 10 µL/min/mg.
Consider `COc1ccccc1Oc1ccccc1CN1CCC2(CC1)CCN(C(=O)c1ccccc1CC(=O)O)CC2` [Example 4, [2-({9-[2-(2-methoxyphenoxy)benzyl]-3,9-diazaspiro[5.5]undec-3-yl}carbonyl)phenyl]acetic Acid], for which the IC50 in data set [1] was 58 nM. The microsomal CLint at 2.5 μM in data set [2] was less than 10 µL/min/mg.
Turning to `COc1ccccc1Oc1ccccc1CN1CCC2(CC1)CCN(C(=O)c1ccc(Cl)cc1CC(=O)O)CC2` [Example 5, [5-chloro-2-({9-[2-(2-methoxyphenoxy)benzyl]-3,9-diazaspiro[5.5]undec-3-yl}carbonyl)phenyl]acetic Acid], the IC50 in data set [1] worked out at 17 nM. For the same compound, in data set [2], the microsomal CLint at 2.5 μM was less than 10 µL/min/mg.
As to `COc1ccccc1Oc1ccccc1CN1CCC2(CC1)CCN(C(=O)c1cc(Cl)c(Cl)cc1C(=O)O)CC2` [Example 6, 4,5-dichloro-2-({9-[2-(2-methoxyphenoxy)benzyl]-3,9-diazaspiro[5.5]undec-3-yl}carbonyl)benzoic Acid], the IC50 in data set [1] was 81 nM. The microsomal CLint at 2.5 μM in data set [2] was found to be 16 µL/min/mg.
Taken in the same sequence, the figures for `COc1ccccc1Oc1ccccc1CN1CCC2(CC1)CCN(C(=O)c1ccccc1NC(=O)C(=O)O)CC2` [Example 7, {[2-({9-[2-(2-methoxyphenoxy)benzyl]-3,9-diazaspiro[5.5]undec-3-yl}carbonyl)phenyl]amino}(oxo)acetic Acid] were 100 nM and less than 10 µL/min/mg.
The corresponding values for `COc1ccccc1Oc1cccc(CN2CCC3(CC2)CCN(C(=O)c2ccccc2CC(=O)O)CC3)c1` [Example 8, [2-({9-[3-(2-methoxyphenoxy)benzyl]-3,9-diazaspiro[5.5]undec-3-yl}carbonyl)phenyl]acetic Acid] are 42 nM and less than 10 µL/min/mg.
Taken in the same sequence, the figures for `COc1ccccc1Oc1cccc(CN2CCC3(CC2)CCN(C(=O)c2ccccc2C(=O)O)CC3)c1` [Example 9, 2-({9-[3-(2-methoxyphenoxy)benzyl]-3,9-diazaspiro[5.5]undec-3-yl}carbonyl)benzoic Acid] were 71 nM and less than 10 µL/min/mg.
Regarding `COc1ccccc1Oc1cccc(CN2CCC3(CC2)CCN(C(=O)c2ccc(OCC(=O)O)cc2)CC3)c1` [Example 10, [4-({9-[3-(2-methoxyphenoxy)benzyl]-3,9-diazaspiro[5.5]undec-3-yl}carbonyl)phenoxy]acetic Acid], in data set [1], the IC50 turned out to be 405 nM. The microsomal CLint at 2.5 μM in data set [2] was less than 10 µL/min/mg.
Taken in the same sequence, the figures for `COc1ccccc1Oc1cccc(CN2CCC3(CC2)CCN(C(=O)c2ccccc2OCC(=O)O)CC3)c1` [Example 11, [2-({9-[3-(2-methoxyphenoxy)benzyl]-3,9-diazaspiro[5.5]undec-3-yl}carbonyl)phenoxy]acetic Acid] were 520 nM and less than 10 µL/min/mg.
For the compound `COc1ccccc1Oc1cccc(CN2CCC3(CC2)CCN(C(=O)c2ccc(Cl)cc2)CC3)c1` [Y, 3-(4-chlorobenzoyl)-9-[3-(2-methoxyphenoxy)benzyl]-3,9-diazaspiro[5.5]undecane, reference compound], the microsomal CLint at 2.5 μM in data set [2] was greater than 200 µL/min/mg.
